One experiment concerns the target Prothrombin (Homo sapiens, UniProt P00734). Nature of the experiment: Inhibitory activity against thrombin.
For the next experiment, the target named is Trypsin (Homo sapiens, UniProt P07477+P07478+P35030). Nature of the experiment: Inhibitory activity against trypsin. The format is protein assay.

The record followed here is ChEMBL document CHEMBL1138128, “Phenolic P2/P3 core motif as thrombin inhibitors--design, synthesis, and X-ray co-crystal structure” (Bioorg Med Chem Lett, 2006).

Some results are limits rather than exact numbers.

With `Cc1ccnc(CNC(=O)Cc2c(C)ccc(NS(=O)(=O)c3cccc(Cl)c3)c2O)c1F`, the results for the IC50 against Prothrombin and at Trypsin were 14000 nM and above 44000 nM, respectively.

With `Cc1ccnc(CNC(=O)Cc2c(C)ccc(NCS(=O)(=O)c3cccc(Cl)c3)c2O)c1F`, the IC50 against Prothrombin is 15000 nM; against Trypsin it was above 44000 nM.

In the case of `Cc1ccc(S(=O)(=O)Nc2ccc(C)c(CC(=O)NCc3nccc(C)c3F)c2O)cc1Cl`, the IC50 was 20000 nM on Prothrombin and above 44000 nM against Trypsin.

On to `Cc1ccc(NS(=O)(=O)c2ccccc2)c(O)c1CC(=O)NCc1ccc(C(=N)N)cc1.Cl`, for which the IC50 against Prothrombin came to 97 nM; against Trypsin, 600 nM.

Consider `COc1cccc(S(=O)(=O)Nc2ccc(C)c(CC(=O)NCc3ccc(C(=N)N)cc3)c2O)c1.Cl`, for which the IC50 on Prothrombin came to 16 nM; on Trypsin, 280 nM.

Regarding `Cc1ccc(NCC(=O)c2ccccc2)c(O)c1CC(=O)NCc1ccc(C(=N)N)cc1.Cl`, the results for the IC50 at Prothrombin and against Trypsin were 4700 nM and 4000 nM, respectively.

Consider `Cc1ccc(NS(=O)(=O)c2cccc(C(F)(F)F)c2)c(O)c1CC(=O)NCc1ccc(C(=N)N)cc1.Cl`, for which the IC50 at Prothrombin was found to be 120 nM; at Trypsin it was 2800 nM.

Regarding `Cc1ccc(NCS(=O)(=O)c2ccccc2)c(O)c1CC(=O)NCc1ccc(C(=N)N)cc1.Cl`, the IC50 on Prothrombin worked out at 190 nM; against Trypsin, 3100 nM.

For `Cc1ccc(C)c(S(=O)(=O)Nc2ccc(C)c(CC(=O)NCc3ccc(C(=N)N)cc3)c2O)c1.Cl`, the IC50 is 25 nM against Prothrombin and 110 nM against Trypsin.

With `Cc1ccc(NS(=O)(=O)c2cc(Cl)ccc2Cl)c(O)c1CC(=O)NCc1ccnc(N)c1.Cl`, the IC50 on Prothrombin was 1000 nM; against Trypsin, above 44000 nM.

For the compound `Cc1ccc(NS(=O)(=O)c2ccc(Cl)cc2)c(O)c1CC(=O)NCc1ccc(C(=N)N)cc1.Cl`, the IC50 on Prothrombin stood at 130 nM; on Trypsin it was 940 nM.

As for `Cc1ccc(NCS(=O)(=O)c2ccccc2)c(O)c1CC(=O)NCc1ccc(N)nc1C.Cl`, the IC50 was 570 nM against Prothrombin and above 44000 nM against Trypsin.

With `Cc1ccc(NS(=O)(=O)c2ccc(Cl)cc2F)c(O)c1CC(=O)NCc1ccc(C(=N)N)cc1.Cl`, the IC50 turned out to be 82 nM on Prothrombin and 680 nM against Trypsin.

For `Cc1ccc(S(=O)(=O)Nc2ccc(C)c(CC(=O)NCc3ccc(C(=N)N)cc3)c2O)cc1.Cl`, the IC50 at Prothrombin amounted to 250 nM; on Trypsin it was 1100 nM.

As for `Cc1ccc(NCNC(=O)c2ccccc2)c(O)c1CC(=O)NCc1ccc(C(=N)N)cc1.Cl`, the IC50 on Prothrombin was 2400 nM; against Trypsin it was 2700 nM.

Turning to `Cc1ccc(NS(=O)(=O)c2cccc(Cl)c2C)c(O)c1CC(=O)NCc1ccc(N)nc1C.Cl`, the values for the IC50 at Prothrombin and on Trypsin were 190 nM and above 44000 nM, respectively.

In the case of `COc1ccc(S(=O)(=O)Nc2ccc(C)c(CC(=O)NCc3ccc(C(=N)N)cc3)c2O)cc1.Cl`, the results for the IC50 against Prothrombin and on Trypsin were 50 nM and 910 nM, respectively.

The compound `Cc1ccc(NS(=O)(=O)c2cccc3ccccc23)c(O)c1CC(=O)NCc1ccc(C(=N)N)cc1.Cl` yielded a 50% inhibitory concentration (IC50) against Trypsin of 1100 nM.

As to `Cc1ccccc1S(=O)(=O)Nc1ccc(C)c(CC(=O)NCc2ccc(N)nc2C)c1O.Cl`, the IC50 is 260 nM on Prothrombin and above 44000 nM at Trypsin.

Turning to `Cc1ccc(S(=O)(=O)Nc2ccc(C)c(CC(=O)NCc3ccc(N)nc3C)c2O)cc1F.Cl`, the concentration for half-maximal inhibition (IC50) is 590 nM against Prothrombin and above 44000 nM against Trypsin.

With `COc1ccc(S(=O)(=O)Nc2ccc(C)c(CC(=O)NCc3ccc(C(=N)N)cc3)c2O)cc1OC.Cl`, the values for the IC50 against Prothrombin and against Trypsin were 39 nM and 340 nM, respectively.

For the compound `Cc1ccc(NS(=O)(=O)c2ccccc2Cl)c(O)c1CC(=O)NCc1ccnc(N)c1.Cl`, the IC50 on Prothrombin was 3000 nM; against Trypsin it was above 44000 nM.

As usually defined, the IC50 is the concentration that gives 50% inhibition. A low value points to greater potency.
